Experimental data reported in ChEMBL document CHEMBL4346710, “Discovery of 7H-pyrrolo[2,3-d]pyrimidine derivatives as selective covalent irreversible inhibitors of interleukin-2-inducible T-cell kinase (Itk)” (Eur J Med Chem, 2019).
The source made the active and inactive calls. No cut-off for these calls is given here.

Columns and labels:
[1] = target: T1, Tyrosine-protein kinase Blk (Homo sapiens, UniProt P51451); experiment: Inhibition of recombinant full-length human His-tagged BLK cytoplasmic domain expressed in baculovirus expression system assessed as enzyme residual activity at 0.4 uM using fluorophore-labeled tyrosine-1 peptide as substrate incubated for 60 mins by Z'-LYTE assay relative to control
[2] = target: Tyrosine-protein kinase JAK3 (Homo sapiens) (UniProt P52333); experiment: (§1) Inhibition of recombinant human GST-tagged JAK3 catalytic domain (781 to 1124 residues) expressed in baculovirus expression system assessed as enzyme residual activity at 0.4 uM using fluorophore-labeled tyrosine-6 peptide as substrate incubated for 60 mins by Z'-LYTE assay relative to control
[3] = target: T2, Tyrosine-protein kinase ITK/TSK (Homo sapiens) (UniProt Q08881); experiment: Inhibition of recombinant full-length human GST-tagged ITK cytoplasmic domain expressed in baculovirus expression system assessed as enzyme residual activity at 0.4 uM using fluorophore-labeled tyrosine-1 peptide as substrate incubated for 60 mins by Z'-LYTE assay relative to control
T2 sequence (whole entry): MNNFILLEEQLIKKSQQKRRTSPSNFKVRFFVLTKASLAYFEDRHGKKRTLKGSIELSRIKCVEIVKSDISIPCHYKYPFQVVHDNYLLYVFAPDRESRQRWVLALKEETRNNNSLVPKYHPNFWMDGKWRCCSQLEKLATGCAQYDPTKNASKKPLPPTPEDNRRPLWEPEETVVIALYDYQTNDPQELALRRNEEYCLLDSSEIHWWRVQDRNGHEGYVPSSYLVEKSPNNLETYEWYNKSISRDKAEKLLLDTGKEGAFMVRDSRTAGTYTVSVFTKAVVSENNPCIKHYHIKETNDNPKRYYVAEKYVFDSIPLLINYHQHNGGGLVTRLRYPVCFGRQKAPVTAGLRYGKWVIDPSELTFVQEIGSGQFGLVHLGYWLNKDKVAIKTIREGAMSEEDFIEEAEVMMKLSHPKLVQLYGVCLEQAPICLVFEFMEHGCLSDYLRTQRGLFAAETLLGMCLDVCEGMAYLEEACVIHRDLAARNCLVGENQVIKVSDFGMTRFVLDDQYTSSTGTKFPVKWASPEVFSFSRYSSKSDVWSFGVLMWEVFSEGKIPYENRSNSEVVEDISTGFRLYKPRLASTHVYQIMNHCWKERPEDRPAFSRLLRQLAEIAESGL

CCRF-CEM [4] = experiment: Induction of apoptosis in human CCRF-CEM cells assessed as downregulation of PARP at 1 to 5 uM incubated for 24 hrs by Western blot analysis; type: functional, cell-based
[5] = target: T2, Tyrosine-protein kinase ITK/TSK (Homo sapiens); experiment: Inhibition of recombinant human N-terminal His6-tagged ITK (352 to 617 residues) expressed in baculovirus infected Sf21 insect cells assessed as inactivation rate constant using STK substrate by HTRF assay
Homo sapiens [6] = organism: Homo sapiens; experiment: Selectivity ratio of IC50 for recombinant human N-terminal His6-tagged JAK3 (781 to end residues) expressed in baculovirus infected Sf21 cells to IC50 for recombinant human N-terminal His6-tagged ITK (352 to 617 residues) expressed in baculovirus infected Sf21 insect cells
[7] = target: T1, Tyrosine-protein kinase Blk; experiment: Inhibition of recombinant full-length human His-tagged BLK cytoplasmic domain expressed in baculovirus expression system using fluorophore-labeled tyrosine-1 peptide as substrate incubated for 60 mins by Z'-LYTE assay
Target sequence in this assay (P51451 whole entry, the tested form may be a part): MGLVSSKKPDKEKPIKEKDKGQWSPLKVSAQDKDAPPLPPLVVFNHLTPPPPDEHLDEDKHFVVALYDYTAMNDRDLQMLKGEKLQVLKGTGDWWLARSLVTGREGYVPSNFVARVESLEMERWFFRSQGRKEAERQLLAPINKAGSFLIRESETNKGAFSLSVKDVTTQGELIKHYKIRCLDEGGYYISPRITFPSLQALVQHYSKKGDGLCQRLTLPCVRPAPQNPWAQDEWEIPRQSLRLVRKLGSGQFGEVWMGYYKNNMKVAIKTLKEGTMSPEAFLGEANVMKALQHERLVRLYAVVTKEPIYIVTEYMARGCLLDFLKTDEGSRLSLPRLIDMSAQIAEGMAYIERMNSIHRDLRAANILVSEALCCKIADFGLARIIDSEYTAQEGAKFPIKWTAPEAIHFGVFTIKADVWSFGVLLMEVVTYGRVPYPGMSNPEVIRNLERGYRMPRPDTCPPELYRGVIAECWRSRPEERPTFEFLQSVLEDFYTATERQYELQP

[8] = target: T2, Tyrosine-protein kinase ITK/TSK (Homo sapiens); experiment: Inhibition of ITK in human Jurkat cells assessed as reduction in anti-CD3/CD28-stimulated PLCgamma1 phosphorylation at 0.1 to 10000 nM preincubated for 2 hrs followed by anti-CD3/CD28 beads addition and measured after 30 min by Western blot analysis; type: cell-based
[9] = target: Tyrosine-protein kinase Lck (Homo sapiens, UniProt P06239); experiment: Inhibition of recombinant full length human C-terminal His-tagged LCK cytoplasmic domain expressed in baculovirus expression system assessed as enzyme residual activity at 0.4 uM using fluorophore-labeled tyrosine-2 peptide as substrate incubated for 60 mins by Z'-LYTE assay relative to control
Tyrosine-protein kinase Lck, sequence (P06239 2-509 limits assumed): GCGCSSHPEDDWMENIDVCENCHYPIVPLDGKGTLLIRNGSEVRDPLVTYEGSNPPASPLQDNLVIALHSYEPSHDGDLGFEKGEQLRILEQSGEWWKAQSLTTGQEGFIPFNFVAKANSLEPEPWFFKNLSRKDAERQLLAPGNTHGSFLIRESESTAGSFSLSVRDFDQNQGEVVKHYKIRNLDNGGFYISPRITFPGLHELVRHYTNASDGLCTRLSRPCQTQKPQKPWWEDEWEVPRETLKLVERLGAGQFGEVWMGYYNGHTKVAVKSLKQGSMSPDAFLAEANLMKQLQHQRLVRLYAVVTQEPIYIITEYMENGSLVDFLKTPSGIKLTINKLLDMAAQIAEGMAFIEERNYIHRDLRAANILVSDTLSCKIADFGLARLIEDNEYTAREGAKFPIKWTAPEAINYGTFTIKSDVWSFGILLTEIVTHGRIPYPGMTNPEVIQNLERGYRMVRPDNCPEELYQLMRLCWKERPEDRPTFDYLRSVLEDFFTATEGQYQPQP

[10] = target: Mitogen-activated protein kinase 8 (Homo sapiens) (UniProt P45983); experiment: Inhibition of tracer 236 binding to recombinant full length human His-tagged MAPK8 expressed in baculovirus expression system assessed as enzyme residual activity at 0.4 uM incubated for 60 mins by Lanthascreen assay relative to control
Mitogen-activated protein kinase 8 (Homo sapiens), sequence (P45983 whole entry, the tested form may be a part): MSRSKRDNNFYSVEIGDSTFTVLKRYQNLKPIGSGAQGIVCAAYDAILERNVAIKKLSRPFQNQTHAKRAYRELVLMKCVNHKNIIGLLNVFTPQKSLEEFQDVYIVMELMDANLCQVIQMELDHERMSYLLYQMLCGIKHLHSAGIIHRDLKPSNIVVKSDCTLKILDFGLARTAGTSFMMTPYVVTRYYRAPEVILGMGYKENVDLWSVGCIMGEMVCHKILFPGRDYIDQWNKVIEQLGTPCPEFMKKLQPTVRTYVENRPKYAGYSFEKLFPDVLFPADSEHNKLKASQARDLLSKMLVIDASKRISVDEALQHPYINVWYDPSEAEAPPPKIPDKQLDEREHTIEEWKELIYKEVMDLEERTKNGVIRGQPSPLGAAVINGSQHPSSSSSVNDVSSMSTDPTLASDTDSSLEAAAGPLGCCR

Homo sapiens [11] = organism: Homo sapiens; experiment: Selectivity ratio of IC50 for recombinant human full-length N-terminal His6-tagged BTK expressed in baculovirus infected Sf21 insect cells to IC50 for recombinant human N-terminal His6-tagged ITK (352 to 617 residues) expressed in baculovirus infected Sf21 insect cells
[12] = target: T2, Tyrosine-protein kinase ITK/TSK (Homo sapiens); experiment: Inhibition of recombinant human N-terminal His6-tagged ITK (352 to 617 residues) expressed in baculovirus infected Sf21 insect cells assessed as ratio of Kinact to Ki using STK substrate by HTRF assay
Homo sapiens [13] = organism: Homo sapiens; experiment: Selectivity ratio of IC50 for recombinant human N-terminal GST-tagged EGFR kinase domain (696 to end residues) expressed in baculovirus infected Sf21 insect cells to IC50 for recombinant human N-terminal His6-tagged ITK (352 to 617 residues) expressed in baculovirus infected Sf21 insect cells
[14] = target: Serine/threonine-protein kinase Nek1 (Homo sapiens) (UniProt Q96PY6); experiment: as §1, with “NEK1” for “JAK3”, “(1” for “(781”, “505 amino acids)” for “1124 residues)”, “serine/threonine-07” for “tyrosine-6”
Serine/threonine-protein kinase Nek1 (Homo sapiens), sequence (Q96PY6 whole entry, the tested form may be a part): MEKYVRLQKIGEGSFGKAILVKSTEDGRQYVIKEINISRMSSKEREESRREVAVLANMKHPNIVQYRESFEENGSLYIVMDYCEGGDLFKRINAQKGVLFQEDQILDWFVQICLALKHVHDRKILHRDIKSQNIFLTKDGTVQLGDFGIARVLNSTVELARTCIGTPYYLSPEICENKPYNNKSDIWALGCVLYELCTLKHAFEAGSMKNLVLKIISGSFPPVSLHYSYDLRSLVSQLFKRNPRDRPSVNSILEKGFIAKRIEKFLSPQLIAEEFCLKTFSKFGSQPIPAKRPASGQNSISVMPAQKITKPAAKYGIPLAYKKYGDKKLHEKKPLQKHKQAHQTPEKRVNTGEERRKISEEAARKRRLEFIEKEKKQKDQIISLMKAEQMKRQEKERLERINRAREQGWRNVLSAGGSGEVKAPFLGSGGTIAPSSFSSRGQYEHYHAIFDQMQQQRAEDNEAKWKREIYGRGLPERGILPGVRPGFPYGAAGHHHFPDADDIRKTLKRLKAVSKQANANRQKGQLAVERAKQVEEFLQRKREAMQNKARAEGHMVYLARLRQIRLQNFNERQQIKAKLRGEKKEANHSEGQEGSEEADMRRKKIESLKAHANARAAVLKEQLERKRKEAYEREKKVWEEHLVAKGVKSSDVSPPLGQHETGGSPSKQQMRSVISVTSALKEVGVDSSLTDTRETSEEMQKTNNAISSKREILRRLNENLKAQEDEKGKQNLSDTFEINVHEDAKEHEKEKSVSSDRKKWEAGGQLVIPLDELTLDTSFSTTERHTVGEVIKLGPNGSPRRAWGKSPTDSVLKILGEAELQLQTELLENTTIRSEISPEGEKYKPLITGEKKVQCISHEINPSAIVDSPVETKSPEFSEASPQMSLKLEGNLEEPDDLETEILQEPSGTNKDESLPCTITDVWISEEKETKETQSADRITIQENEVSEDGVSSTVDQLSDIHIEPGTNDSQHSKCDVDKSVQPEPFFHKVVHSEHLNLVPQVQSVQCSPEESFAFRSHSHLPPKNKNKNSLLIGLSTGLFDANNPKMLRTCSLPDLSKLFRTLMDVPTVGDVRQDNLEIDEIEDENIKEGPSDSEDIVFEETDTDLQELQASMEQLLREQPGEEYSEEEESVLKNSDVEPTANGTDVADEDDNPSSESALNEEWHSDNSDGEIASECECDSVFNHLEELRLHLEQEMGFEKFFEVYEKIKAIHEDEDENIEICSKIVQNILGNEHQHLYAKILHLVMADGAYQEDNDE

[15] = target: Ephrin type-A receptor 2 (Homo sapiens) (UniProt P29317); experiment: Inhibition of recombinant human GST-tagged EPHA2 cytoplasmic domain (560 to 976 residues) expressed in baculovirus expression system assessed as enzyme residual activity at 0.4 uM using tyrosine-01 peptide as substrate incubated for 60 mins by Z'-Lyte assay relative to control
[16] = target: Hepatocyte growth factor receptor (Homo sapiens) (UniProt P08581); experiment: Inhibition of recombinant human N-terminal His-tagged cMET cytoplasmic domain (956 to 1390 residues) expressed in baculovirus expression system assessed as enzyme residual activity at 0.4 uM using fluorophore-labeled tyrosine 6 peptide as substrate incubated for 60 mins by Z'-LYTE assay relative to control
Hepatocyte growth factor receptor (Homo sapiens), sequence (P08581 whole entry, the tested form may be a part): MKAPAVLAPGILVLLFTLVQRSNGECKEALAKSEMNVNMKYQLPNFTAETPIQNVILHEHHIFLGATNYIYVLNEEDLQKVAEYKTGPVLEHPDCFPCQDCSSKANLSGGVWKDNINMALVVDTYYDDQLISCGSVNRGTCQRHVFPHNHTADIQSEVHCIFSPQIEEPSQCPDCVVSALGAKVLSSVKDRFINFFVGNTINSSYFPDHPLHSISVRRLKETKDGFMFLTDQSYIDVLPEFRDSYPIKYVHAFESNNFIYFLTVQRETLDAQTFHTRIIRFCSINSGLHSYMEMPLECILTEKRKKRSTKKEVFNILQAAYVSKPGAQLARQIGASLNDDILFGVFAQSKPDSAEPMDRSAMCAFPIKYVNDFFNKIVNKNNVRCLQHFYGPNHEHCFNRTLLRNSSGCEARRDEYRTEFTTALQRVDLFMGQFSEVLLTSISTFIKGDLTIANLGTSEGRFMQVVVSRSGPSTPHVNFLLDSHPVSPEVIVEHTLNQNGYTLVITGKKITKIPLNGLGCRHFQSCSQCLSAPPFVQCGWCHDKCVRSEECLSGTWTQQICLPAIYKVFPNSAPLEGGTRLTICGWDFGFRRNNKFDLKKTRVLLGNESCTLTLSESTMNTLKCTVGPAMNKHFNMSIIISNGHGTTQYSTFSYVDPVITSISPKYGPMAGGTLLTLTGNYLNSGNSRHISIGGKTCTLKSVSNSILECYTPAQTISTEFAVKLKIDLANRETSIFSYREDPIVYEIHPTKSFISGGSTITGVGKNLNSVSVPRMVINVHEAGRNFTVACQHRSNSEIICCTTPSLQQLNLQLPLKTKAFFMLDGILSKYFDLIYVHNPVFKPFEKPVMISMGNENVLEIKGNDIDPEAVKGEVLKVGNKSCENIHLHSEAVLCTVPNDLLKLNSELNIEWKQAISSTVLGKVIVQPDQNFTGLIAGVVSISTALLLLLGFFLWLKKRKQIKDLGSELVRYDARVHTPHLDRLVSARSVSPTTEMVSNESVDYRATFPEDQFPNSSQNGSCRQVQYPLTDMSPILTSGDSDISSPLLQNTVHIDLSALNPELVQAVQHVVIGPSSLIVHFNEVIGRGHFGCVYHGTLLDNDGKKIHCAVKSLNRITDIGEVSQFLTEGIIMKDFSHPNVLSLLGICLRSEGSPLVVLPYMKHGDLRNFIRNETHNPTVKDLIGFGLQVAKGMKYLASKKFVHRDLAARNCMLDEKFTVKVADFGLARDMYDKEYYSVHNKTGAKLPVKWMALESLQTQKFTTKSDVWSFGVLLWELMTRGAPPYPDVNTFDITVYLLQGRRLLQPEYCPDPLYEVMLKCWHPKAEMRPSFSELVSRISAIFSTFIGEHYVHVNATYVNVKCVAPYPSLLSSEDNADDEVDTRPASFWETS

[17] = target: Tyrosine-protein kinase BTK (Homo sapiens, UniProt Q06187); experiment: Inhibition of BTK in human Ramos cells assessed as reduction in […] PLCgamma2 phosphorylation at 10 to 3000 nM preincubated for 2 hrs followed by […] addition and measured after 30 min by Western blot analysis; type: cell-based
Tyrosine-protein kinase BTK, sequence (Q06187 whole entry, the tested form may be a part): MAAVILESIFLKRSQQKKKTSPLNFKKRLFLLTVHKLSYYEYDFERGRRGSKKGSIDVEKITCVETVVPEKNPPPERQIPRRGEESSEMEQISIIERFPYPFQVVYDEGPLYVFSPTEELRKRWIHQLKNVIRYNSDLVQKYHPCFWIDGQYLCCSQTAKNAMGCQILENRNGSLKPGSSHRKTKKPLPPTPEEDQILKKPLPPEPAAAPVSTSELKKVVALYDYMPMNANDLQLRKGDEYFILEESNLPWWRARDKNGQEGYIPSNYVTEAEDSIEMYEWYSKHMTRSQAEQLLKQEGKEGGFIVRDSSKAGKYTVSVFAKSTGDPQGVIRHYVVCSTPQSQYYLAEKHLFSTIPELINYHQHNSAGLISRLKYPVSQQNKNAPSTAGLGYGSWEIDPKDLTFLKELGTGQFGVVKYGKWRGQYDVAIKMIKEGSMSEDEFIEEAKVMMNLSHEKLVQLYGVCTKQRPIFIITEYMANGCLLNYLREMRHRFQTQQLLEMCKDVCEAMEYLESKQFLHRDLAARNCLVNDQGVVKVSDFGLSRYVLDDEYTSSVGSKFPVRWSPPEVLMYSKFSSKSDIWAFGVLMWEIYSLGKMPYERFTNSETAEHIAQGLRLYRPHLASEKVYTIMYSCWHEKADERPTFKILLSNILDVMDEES

[18] = target: cAMP-dependent protein kinase catalytic subunit alpha (Homo sapiens) (UniProt P17612); experiment: Inhibition of recombinant human His-tagged PRKACA catalytic domain (1 to 351 residues) expressed in Escherichia coli assessed as enzyme residual activity at 0.4 uM using fluorophore-labeled serine/threonine-1 peptide as substrate incubated for 60 mins by Z'-LYTE assay relative to control
CCRF-CEM [19] = experiment: Growth inhibition of human CCRF-CEM cells incubated for 72 hrs by CellTiter-Glo luminescent cell viability assay; type: functional
MOLT-4 = experiment: Growth inhibition of human MOLT4 cells incubated for 72 hrs by CellTiter-Glo luminescent cell viability assay; type: functional; conditions: MOLT-4, 72 h

How did the Activity [1] turn out when `C=CC(=O)N1CCC(Oc2nc(Nc3ccc(N4CCOCC4)cc3)nc3[nH]cc(-c4cncc(NC)n4)c23)CC1` was run?
Its Activity is 9%.

And the Activity [2]?
The Activity was 16.3%.

And the Activity [3]?
Its Activity is 1%.

And the Activity (CCRF-CEM [4])?
Its Activity is “Active”.

What about the K [5] of the same compound?
Its K is 0.038 min⁻¹.

And the Ratio IC50 (Homo sapiens [6])?
Its Ratio IC50 is 33.

What about the IC50 [7] of the same compound?
The IC50 was 198 nM.

What about the inhibition [8] of the same compound?
The inhibition was “Active”.

And the Activity [9]?
Its Activity is 9%.

And the Activity [10]?
The Activity was 25%.

What about the Ratio IC50 (Homo sapiens [11]) of the same compound?
The Ratio IC50 was 250.

What about the Ratio [12] of the same compound?
Its Ratio is 101 ×10³ /M.s.

And the Ratio IC50 (Homo sapiens [13])?
Its Ratio IC50 is 250.

What about the Activity [14] of the same compound?
The Activity was 89%.

What about the Activity [15] of the same compound?
The Activity was 95%.

What about the Activity [16] of the same compound?
Its Activity is 79%.

And the inhibition [17]?
The inhibition was “inactive”.

What about the Activity [18] of the same compound?
Its Activity is 86%.

And the GI50 (CCRF-CEM [19])?
The GI50 was 127 nM.

And the GI50 (MOLT-4)?
The GI50 was 167 nM.
